Laboratory results taken from the Kinase Knowledgebase extract (Sharma et al. 2016).

These molecules were tested against MAPK14 (human) (UniProt Q16539) (assay: Inhibition of MAPK14 Kinase Activity).
Sequence of MAPK14 (human) (Q16539 whole entry, looked up): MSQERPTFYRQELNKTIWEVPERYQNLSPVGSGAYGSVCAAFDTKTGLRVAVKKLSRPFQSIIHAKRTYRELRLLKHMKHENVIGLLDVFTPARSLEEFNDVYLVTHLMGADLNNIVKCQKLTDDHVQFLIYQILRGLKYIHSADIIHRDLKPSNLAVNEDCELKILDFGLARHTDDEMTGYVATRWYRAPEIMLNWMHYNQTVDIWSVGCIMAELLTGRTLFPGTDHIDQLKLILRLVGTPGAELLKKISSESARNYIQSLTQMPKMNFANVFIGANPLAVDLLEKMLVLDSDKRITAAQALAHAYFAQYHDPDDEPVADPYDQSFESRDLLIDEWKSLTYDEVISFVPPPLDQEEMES

SMILES	IC50
CC(C)NC(=O)c1csc(-c2c(-c3ccc(F)cc3)n[nH]c2C2CCN(C(=O)c3ccc(C=O)cc3)CC2)n1	≤ 1000 nM
CC(C)NC(=O)c1csc(-c2c(-c3ccc(F)cc3)n[nH]c2C2CCN(C(=O)[C@H](C)O)CC2)n1	≤ 1000 nM
O=C(NCc1ccccc1F)c1csc(-c2c(-c3ccc(F)cc3)n[nH]c2C2CCNCC2)n1	≤ 1000 nM
CC(C)NC(=O)c1csc(-c2oc(CNC(=O)c3cccc(O)c3)nc2-c2ccc(F)cc2)n1	≤ 1000 nM
Cc1nc(-c2ccc(F)cc2)c(-c2nc(C(=O)NCc3cc(F)cc(F)c3)cs2)s1	≤ 1000 nM
O=C(NC1CC1)c1csc(-c2c(-c3ccc(F)cc3)n[nH]c2C2CCNCC2)n1	≤ 1000 nM
CC(C)NC(=O)c1csc(-c2oc(CN3CCN(C(=O)C(Cc4ccc(O)cc4)NC(=O)OC(C)(C)C)CC3)nc2-c2ccc(F)cc2)n1 (stereo not given)	≤ 1000 nM
CC(C)NC(=O)c1csc(-c2oc(CNC(C)CO)nc2-c2ccc(F)cc2)n1 (stereo not given)	≤ 1000 nM
COc1ccccc1CC(=O)NCc1nc(-c2ccc(F)cc2)c(-c2nc(C(=O)NC(C)C)cs2)o1	≤ 1000 nM
CC(C)NC(=O)c1csc(-c2c(-c3ccc(F)cc3)n[nH]c2C2CCN(C(=O)c3cncc(Br)c3)CC2)n1	≤ 1000 nM
CC(C)NC(=O)c1csc(-c2oc(CNC(=O)c3cc([N+](=O)[O-])ccc3O)nc2-c2ccc(F)cc2)n1	≤ 1000 nM
O=C(NCc1cccnc1)c1csc(-c2c(-c3ccc(F)cc3)n[nH]c2C2CCN(C(=O)CO)CC2)n1	≤ 1000 nM
CC(C)NC(=O)c1csc(-c2oc(CN3CCN(C(=O)c4ccc5ncccc5c4)CC3)nc2-c2ccc(F)cc2)n1	≤ 1000 nM
COC[C@H]1CCCN1C(=O)c1csc(-c2sc(C)nc2-c2ccc(F)cc2)n1	≤ 1000 nM
CC(=O)NCc1nc(-c2ccc(F)cc2)c(-c2nc(C(=O)NC(C)C)cs2)[nH]1	≤ 1000 nM
CNC(=O)c1csc(-c2c(-c3ccc(F)cc3)n[nH]c2C2CCNCC2)n1	≤ 1000 nM
CC(C)NC(=O)c1csc(-c2c(-c3ccc(F)cc3)noc2CNCC#N)n1	≤ 1000 nM
CC(C)NC(=O)c1csc(-c2oc(CNC(=O)C(F)(F)F)nc2-c2ccc(F)cc2)n1	≤ 1000 nM

SMILES	IC50
Cc1[nH]nc(-c2ccc(F)cc2)c1-c1nc(C(=O)NCc2ccc3c(c2)OCO3)cs1	≤ 1000 nM
CC(C)NC(=O)c1csc(-c2oc(CN3CCN(C(=O)c4ccc(OC(C)C)cc4)CC3)nc2-c2ccc(F)cc2)n1	≤ 1000 nM
Cc1nc(-c2ccc(F)cc2)c(-c2nc(C(=O)NCc3ccc(F)c(Cl)c3)cs2)s1	≤ 1000 nM
CC(C)NC(=O)c1csc(-c2oc(CNC(=O)c3ncc[nH]3)nc2-c2ccc(F)cc2)n1	≤ 1000 nM
CC(C)NC(=O)c1csc(-c2c(-c3ccc(F)cc3)ncn2C2CCN(C(=O)CO)CC2)n1	≤ 1000 nM
CCCCOc1ccc(C(=O)N2CCN(Cc3nc(-c4ccc(F)cc4)c(-c4nc(C(=O)NC(C)C)cs4)o3)CC2)cc1	≤ 1000 nM
CC(C)NC(=O)c1csc(-c2oc(CNC(=O)C3CCCCC3)nc2-c2ccc(F)cc2)n1	≤ 1000 nM
CC(C)NC(=O)c1csc(-c2oc(CN3CCN(C(=O)c4ccc5cccc(O)c5n4)CC3)nc2-c2ccc(F)cc2)n1	≤ 1000 nM
CC(C)NC(=O)c1csc(-c2c(-c3ccc(F)cc3)n[nH]c2C2CCN(C(=O)c3cscn3)CC2)n1	≤ 1000 nM
Cc1onc(-c2ccc(Cl)cc2)c1-c1ccn(C(=O)NCCO)n1	≤ 1000 nM
CC(C)NC(=O)c1csc(-c2oc(CNC(=O)Cc3ccccc3O)nc2-c2ccc(F)cc2)n1	≤ 1000 nM
CC(C)NC(=O)c1csc(-c2c(-c3ccc(F)cc3)noc2CN2CCCC2CO)n1 (stereo not given)	≤ 1000 nM
CC(C)NC(=O)c1csc(-c2oc(CNC(=O)C(C)O)nc2-c2ccc(F)cc2)n1 (stereo not given)	≤ 1000 nM
CCC(CO)NC(=O)c1csc(-c2sc(C)nc2-c2ccc(F)cc2)n1 (stereo not given)	≤ 1000 nM
C#CCNC(=O)c1csc(-c2c(-c3ccc(F)cc3)ncn2C2CCN(C(=O)CO)CC2)n1	≤ 1000 nM
Cc1cccc([N+](=O)[O-])c1C(=O)NCc1nc(-c2ccc(F)cc2)c(-c2nc(C(=O)NC(C)C)cs2)o1	≤ 1000 nM
C#CCNC(=O)c1csc(-c2c(-c3ccc(F)cc3)n[nH]c2C2CCNCC2)n1	≤ 1000 nM
